According to patent US10765114B2, “4-amino-6-(pyridyl and 2-substitutedphenyl)-picolinates and 6-amino-2-(pyridyl and 2-substitutedphenyl)-pyrimidine-4-carboxylates and their use as herbicides” (Dow AgroSciences LLC, priority 2013, dated 2020):

System: not given
Assay: not given
Conditions: not given

melting point [°C]	Compound
191	COC(=O)c1nc(-c2ccc(C)nc2)c(F)c(N)c1Cl [Compound 90]

System: Key Grass and Sedge Weeds as well as Grass Crops
Assay: Post-Emergent Test II (Table 6)
Type: in vivo
Conditions: post-emergence, 336 h, CYPSS, 70 g ai/ha, 14 days after application, read-out: Visual Growth Reduction (%) 14 Days After Application CYPSS
In short: (§1)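 Growth stage at treatment: first or second true leaf. Application: compound in acetone/DMSO diluted into an adjuvant-containing aqueous mix, sprayed at 187 L/ha at several rates. Assessment: visual 0-100% injury at 14 days against untreated plants.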

Compound	pest or weed control at 70 g/ha [%]
COC(=O)c1nc(-c2ccc(C)nc2)c(F)c(N)c1Cl [Compound 90]	0 to 29

Same assay, conditions: post-emergence, 336 h, CYPSS, 140 g ai/ha, 14 days after application, read-out: Visual Growth Reduction (%) 14 Days After Application CYPSS

Compound	pest or weed control at 140 g/ha [%]
COC(=O)c1nc(-c2ccc(C)nc2)c(F)c(N)c1Cl [Compound 90]	0 to 29

Same assay, conditions: post-emergence, 336 h, DIGSA: crabgrass (Digitaria sanguinalis), 70 g ai/ha, 14 days after application, read-out: Visual Growth Reduction (%) 14 Days After Application DIGSA

Compound	pest or weed control at 70 g/ha [%]
COC(=O)c1nc(-c2ccc(C)nc2)c(F)c(N)c1Cl [Compound 90]	0 to 29

Same assay, conditions: post-emergence, 336 h, DIGSA: crabgrass (Digitaria sanguinalis), 140 g ai/ha, 14 days after application, read-out: Visual Growth Reduction (%) 14 Days After Application DIGSA

Compound	pest or weed control at 140 g/ha [%]
COC(=O)c1nc(-c2ccc(C)nc2)c(F)c(N)c1Cl [Compound 90]	45 to 59

Same assay, conditions: post-emergence, 336 h, ECHSS, 70 g ai/ha, 14 days after application, read-out: Visual Growth Reduction (%) 14 Days After Application ECHSS

Compound	pest or weed control at 70 g/ha [%]
COC(=O)c1nc(-c2ccc(C)nc2)c(F)c(N)c1Cl [Compound 90]	75 to 84

Same assay, conditions: post-emergence, 336 h, ECHSS, 140 g ai/ha, 14 days after application, read-out: Visual Growth Reduction (%) 14 Days After Application ECHSS

Compound	pest or weed control at 140 g/ha [%]
COC(=O)c1nc(-c2ccc(C)nc2)c(F)c(N)c1Cl [Compound 90]	75 to 84

Same assay, conditions: post-emergence, 336 h, ORYSS (crop), 70 g ai/ha, 14 days after application, read-out: Visual Growth Reduction (%) 14 Days After Application ORYSS

Compound	pest or weed control at 70 g/ha [%]
COC(=O)c1nc(-c2ccc(C)nc2)c(F)c(N)c1Cl [Compound 90]	0 to 29

Same assay, conditions: post-emergence, 336 h, ORYSS (crop), 140 g ai/ha, 14 days after application, read-out: Visual Growth Reduction (%) 14 Days After Application ORYSS

Compound	pest or weed control at 140 g/ha [%]
COC(=O)c1nc(-c2ccc(C)nc2)c(F)c(N)c1Cl [Compound 90]	0 to 29

Same assay, conditions: post-emergence, 336 h, SETFA: giant foxtail (Setaria faberi), 70 g ai/ha, 14 days after application, read-out: Visual Growth Reduction (%) 14 Days After Application SETFA

Compound	pest or weed control at 70 g/ha [%]
COC(=O)c1nc(-c2ccc(C)nc2)c(F)c(N)c1Cl [Compound 90]	45 to 59

Same assay, conditions: post-emergence, 336 h, SETFA: giant foxtail (Setaria faberi), 140 g ai/ha, 14 days after application, read-out: Visual Growth Reduction (%) 14 Days After Application SETFA

Compound	pest or weed control at 140 g/ha [%]
COC(=O)c1nc(-c2ccc(C)nc2)c(F)c(N)c1Cl [Compound 90]	60 to 74

Same assay, conditions: post-emergence, 336 h, SORVU: grain sorghum (Sorghum vulgare), 70 g ai/ha, 14 days after application, read-out: Visual Growth Reduction (%) 14 Days After Application SORVU

Compound	pest or weed control at 70 g/ha [%]
COC(=O)c1nc(-c2ccc(C)nc2)c(F)c(N)c1Cl [Compound 90]	45 to 59

Same assay, conditions: post-emergence, 336 h, SORVU: grain sorghum (Sorghum vulgare), 140 g ai/ha, 14 days after application, read-out: Visual Growth Reduction (%) 14 Days After Application SORVU

Compound	pest or weed control at 140 g/ha [%]
COC(=O)c1nc(-c2ccc(C)nc2)c(F)c(N)c1Cl [Compound 90]	45 to 59

Same assay, conditions: post-emergence, 336 h, TRZSS (crop), 70 g ai/ha, 14 days after application, read-out: Visual Growth Reduction (%) 14 Days After Application TRZSS

Compound	pest or weed control at 70 g/ha [%]
COC(=O)c1nc(-c2ccc(C)nc2)c(F)c(N)c1Cl [Compound 90]	30 to 44

Same assay, conditions: post-emergence, 336 h, TRZSS (crop), 140 g ai/ha, 14 days after application, read-out: Visual Growth Reduction (%) 14 Days After Application TRZSS

Compound	pest or weed control at 140 g/ha [%]
COC(=O)c1nc(-c2ccc(C)nc2)c(F)c(N)c1Cl [Compound 90]	30 to 44

Same assay, conditions: post-emergence, 336 h, ZEAMX: maize, corn (Zea mays), 70 g ai/ha, 14 days after application, read-out: Visual Growth Reduction (%) 14 Days After Application ZEAMX

Compound	pest or weed control at 70 g/ha [%]
COC(=O)c1nc(-c2ccc(C)nc2)c(F)c(N)c1Cl [Compound 90]	95 to 100

Same assay, conditions: post-emergence, 336 h, ZEAMX: maize, corn (Zea mays), 140 g ai/ha, 14 days after application, read-out: Visual Growth Reduction (%) 14 Days After Application ZEAMX

Compound	pest or weed control at 140 g/ha [%]
COC(=O)c1nc(-c2ccc(C)nc2)c(F)c(N)c1Cl [Compound 90]	95 to 100

System: Key Broadleaf Weed and Crop Species
Assay: Post-Emergent Test II (Table 5)
Type: in vivo
Conditions: Abutilon theophrasti, post-emergence, 336 h, ABUTH: velvetleaf (Abutilon theophrasti), application rate 70 (kg ai/ha; footnote: g ai/ha), read-out: Visual Growth Reduction (%) 14 Days After Application ABUTH
In short: as §1

Compound	pest or weed control at 70 g/ha [%]
COC(=O)c1nc(-c2ccc(C)nc2)c(F)c(N)c1Cl [Compound 90]	85 to 94

Same assay, conditions: Abutilon theophrasti, post-emergence, 336 h, ABUTH: velvetleaf (Abutilon theophrasti), application rate 140 (kg ai/ha; footnote: g ai/ha), read-out: Visual Growth Reduction (%) 14 Days After Application ABUTH

Compound	pest or weed control at 140 g/ha [%]
COC(=O)c1nc(-c2ccc(C)nc2)c(F)c(N)c1Cl [Compound 90]	95 to 100

Same assay, conditions: Amaranthus retroflexus, post-emergence, 336 h, AMARE: redroot pigweed (Amaranthus retroflexus), application rate 70 (kg ai/ha; footnote: g ai/ha), read-out: Visual Growth Reduction (%) 14 Days After Application AMARE

Compound	pest or weed control at 70 g/ha [%]
COC(=O)c1nc(-c2ccc(C)nc2)c(F)c(N)c1Cl [Compound 90]	95 to 100

Same assay, conditions: Amaranthus retroflexus, post-emergence, 336 h, AMARE: redroot pigweed (Amaranthus retroflexus), application rate 140 (kg ai/ha; footnote: g ai/ha), read-out: Visual Growth Reduction (%) 14 Days After Application AMARE

Compound	pest or weed control at 140 g/ha [%]
COC(=O)c1nc(-c2ccc(C)nc2)c(F)c(N)c1Cl [Compound 90]	95 to 100

Same assay, conditions: Brassica napus, post-emergence, 336 h, BRSSS: oilseed rape, canola (Brassica napus), application rate 70 (kg ai/ha; footnote: g ai/ha), read-out: Visual Growth Reduction (%) 14 Days After Application BRSSS

Compound	pest or weed control at 70 g/ha [%]
COC(=O)c1nc(-c2ccc(C)nc2)c(F)c(N)c1Cl [Compound 90]	60 to 74

Same assay, conditions: Brassica napus, post-emergence, 336 h, BRSSS: oilseed rape, canola (Brassica napus), application rate 140 (kg ai/ha; footnote: g ai/ha), read-out: Visual Growth Reduction (%) 14 Days After Application BRSSS

Compound	pest or weed control at 140 g/ha [%]
COC(=O)c1nc(-c2ccc(C)nc2)c(F)c(N)c1Cl [Compound 90]	75 to 84

Same assay, conditions: Chenopodium album, post-emergence, 336 h, CHEAL: lambsquarters (Chenopodium album), application rate 70 (kg ai/ha; footnote: g ai/ha), read-out: Visual Growth Reduction (%) 14 Days After Application CHEAL

Compound	pest or weed control at 70 g/ha [%]
COC(=O)c1nc(-c2ccc(C)nc2)c(F)c(N)c1Cl [Compound 90]	95 to 100

Same assay, conditions: Chenopodium album, post-emergence, 336 h, CHEAL: lambsquarters (Chenopodium album), application rate 140 (kg ai/ha; footnote: g ai/ha), read-out: Visual Growth Reduction (%) 14 Days After Application CHEAL

Compound	pest or weed control at 140 g/ha [%]
COC(=O)c1nc(-c2ccc(C)nc2)c(F)c(N)c1Cl [Compound 90]	95 to 100

Same assay, conditions: Euphorbia heterophylla, post-emergence, 336 h, EPHHL: wild poinsettia (Euphorbia heterophylla), application rate 70 (kg ai/ha; footnote: g ai/ha), read-out: Visual Growth Reduction (%) 14 Days After Application EPHHL

Compound	pest or weed control at 70 g/ha [%]
COC(=O)c1nc(-c2ccc(C)nc2)c(F)c(N)c1Cl [Compound 90]	85 to 94

Same assay, conditions: Euphorbia heterophylla, post-emergence, 336 h, EPHHL: wild poinsettia (Euphorbia heterophylla), application rate 140 (kg ai/ha; footnote: g ai/ha), read-out: Visual Growth Reduction (%) 14 Days After Application EPHHL

Compound	pest or weed control at 140 g/ha [%]
COC(=O)c1nc(-c2ccc(C)nc2)c(F)c(N)c1Cl [Compound 90]	95 to 100

Same assay, conditions: Helianthus annuus, post-emergence, 336 h, HELAN: sunflower (Helianthus annuus), application rate 70 (kg ai/ha; footnote: g ai/ha), read-out: Visual Growth Reduction (%) 14 Days After Application HELAN

Compound	pest or weed control at 70 g/ha [%]
COC(=O)c1nc(-c2ccc(C)nc2)c(F)c(N)c1Cl [Compound 90]	95 to 100

Same assay, conditions: Helianthus annuus, post-emergence, 336 h, HELAN: sunflower (Helianthus annuus), application rate 140 (kg ai/ha; footnote: g ai/ha), read-out: Visual Growth Reduction (%) 14 Days After Application HELAN

Compound	pest or weed control at 140 g/ha [%]
COC(=O)c1nc(-c2ccc(C)nc2)c(F)c(N)c1Cl [Compound 90]	95 to 100

Same assay, conditions: Viola tricolor, post-emergence, 336 h, VIOTR: wild pansy (Viola tricolor), application rate 70 (kg ai/ha; footnote: g ai/ha), read-out: Visual Growth Reduction (%) 14 Days After Application VIOTR

Compound	pest or weed control at 70 g/ha [%]
COC(=O)c1nc(-c2ccc(C)nc2)c(F)c(N)c1Cl [Compound 90]	0 to 29

Same assay, conditions: Viola tricolor, post-emergence, 336 h, VIOTR: wild pansy (Viola tricolor), application rate 140 (kg ai/ha; footnote: g ai/ha), read-out: Visual Growth Reduction (%) 14 Days After Application VIOTR

Compound	pest or weed control at 140 g/ha [%]
COC(=O)c1nc(-c2ccc(C)nc2)c(F)c(N)c1Cl [Compound 90]	45 to 59
